The values below come from article PMC7795096, “LPMO AfAA9_B and Cellobiohydrolase AfCel6A from A. fumigatus Boost Enzymatic Saccharification Activity of Cellulase Cocktail” (International Journal of Molecular Sciences, 2020).

The assay addresses T1, AfCel6A (Aspergillus fumigatus, UniProt Q4WFK4).
T1 construct: gene cbhC; without predicted signal peptide (forward primer encodes QQTVW start) in pPICZαA, with N-terminal CBM1, His6 tag kept, secreted by Pichia pastoris X-33, about 65 kDa
T1 sequence (Q4WFK4 20-454): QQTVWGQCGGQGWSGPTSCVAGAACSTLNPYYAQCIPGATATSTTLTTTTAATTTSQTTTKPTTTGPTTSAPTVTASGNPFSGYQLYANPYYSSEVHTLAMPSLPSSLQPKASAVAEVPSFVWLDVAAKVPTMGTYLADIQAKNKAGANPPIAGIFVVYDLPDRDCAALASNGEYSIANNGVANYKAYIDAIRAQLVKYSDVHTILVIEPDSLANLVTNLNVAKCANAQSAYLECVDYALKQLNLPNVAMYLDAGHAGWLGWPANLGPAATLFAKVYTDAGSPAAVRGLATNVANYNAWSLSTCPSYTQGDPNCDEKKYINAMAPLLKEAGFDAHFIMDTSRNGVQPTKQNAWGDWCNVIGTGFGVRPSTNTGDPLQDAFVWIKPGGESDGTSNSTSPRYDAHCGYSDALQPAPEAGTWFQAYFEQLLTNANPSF
Kind of assay: activity at rising sugar concentration ([…]), substrate 4-nitrophenyl β-D-cellobioside. It counts as biochemical. Conditions: product inhibition; the text also states 50% inhibition at 100 mM.

pIC50: −log10 of the molar value.

A word on the pIC50: it is −log10 of the IC50, conventionally taken in molar units. A lower pIC50 goes with a large IC50.

`OC[C@H]1O[C@@H](O[C@H]2[C@H](O)[C@@H](O)C(O)O[C@@H]2CO)[C@H](O)[C@@H](O)[C@@H]1O` (stereo partly shown) [cellobiose] gave a pIC50 of less than 1.00.
